Several values for one entry are separate records, joined by “and”; a condition that tells them apart may be missing. Equal entries are not always repeated.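 The compound was tested at five concentrations on cells cultured in 96-well plates, with a 48-hour exposure period. Abbreviation: GI50, concentration required for 50% inhibition of growth. TGI: concentration producing complete growth inhibition.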
Tests used:
Assay in all cases: NCI tumour cell line growth inhibition, 48 h
HL-60(TB) leukemia = tested on: HL-60(TB) leukemia
DU-145 prostate = tested on: DU-145 prostate
SK-MEL-28 melanoma = tested on: SK-MEL-28 melanoma
PC-3 prostate = tested on: PC-3 prostate
T-47D breast = tested on: T-47D breast
786-0 renal = tested on: 786-0 renal
IGROV1 ovarian = tested on: IGROV1 ovarian
MDA-MB-435 = tested on: MDA-MB-435
KM12 colon = tested on: KM12 colon

Row | SMILES | TGI (HL-60(TB) leukemia) | TGI (DU-145 prostate) | TGI (SK-MEL-28 melanoma) | TGI (PC-3 prostate) | TGI (T-47D breast) | TGI (786-0 renal) | TGI (IGROV1 ovarian) | TGI (MDA-MB-435) | TGI (KM12 colon) | GI50 (HL-60(TB) leukemia)
1 | N/C(COc1ccc(Cl)cc1)=N\NC(=O)c1ccncc1 | > 100 µM | > 100 µM | > 100 µM | > 100 µM | > 100 µM | > 100 µM | > 100 µM | > 100 µM | > 100 µM | 
2 | CC(C)CCCC(C)[C@H]1CC[C@H]2[C@@H]3CC[C@H]4C[C@@H](CCC=C(c5cc(Cl)c(O)c(C(=O)O)c5)c5cc(Cl)c(O)c(C(=O)O)c5)CC[C@]4(C)[C@H]3CC[C@]12C (some centres undefined) (tested in a mixture with another compound) | > 50 µM | > 50 µM | > 50 µM | > 50 µM | > 50 µM | > 50 µM | > 50 µM | > 50 µM | > 50 µM | 
3 | C1=NCCNCCN=Cc2ccccc2OCc2cccc(n2)COc2ccccc21 | 6.84 µM | > 100 µM | > 100 µM | > 95.3 µM | > 100 µM | > 39.1 µM | > 100 µM | > 68.7 µM | > 62.2 µM | 
4 | CN(C)CCNC(=O)c1cc(-c2nccn2C)nc2ccccc12 | > 100 µM | > 100 µM |  | > 100 µM | > 100 µM | > 100 µM | > 100 µM | > 100 µM | > 100 µM | 
5 | C/C1=C\CC/C(C)=C/C=C(/C(C)C)CC/C(C(=O)O)=C/CC1 | > 100 µM | > 100 µM | > 100 µM | > 100 µM | 75.6 µM | > 100 µM | > 100 µM | > 100 µM | > 100 µM | 
6 | CO/N=C(/C(=O)OC)c1ccccc1COc1cccc(C(F)(F)F)c1 | 49 µM | > 100 µM | > 100 µM | > 100 µM | 64.7 µM | > 100 µM | > 100 µM | > 100 µM | 92 µM | 
7 | CCN(CC)CCC(=O)c1ccc(Oc2ccccc2)cc1 |  | 71.2 µM | 32.5 µM | > 100 µM | 42 µM | 29.3 µM | 33.3 µM | 40.2 µM | 27.4 µM | 
8 | CC1=NN(C(=O)c2ccccc2O)C(c2ccccc2Cl)C1C(=O)Nc1ccccc1 (centres undefined) | 7.24 µM | > 43.5 µM | > 100 µM | > 100 µM | > 100 µM | > 44.9 µM | > 32.4 µM | > 100 µM | > 100 µM | 
9 | COc1cccc(C[C@H]2COC(=O)[C@]2(O)Cc2cccc(OC)c2)c1 | > 100 µM | > 100 µM | > 100 µM | > 100 µM | 67.9 µM | > 100 µM | > 100 µM | > 100 µM | > 100 µM | 
10 | COC(=O)/C=C(/C(=O)OC)c1c(C)cc2c(C)cc(C)cc(C)c1-2 | > 100 µM | > 91.8 µM | > 100 µM | 98.6 µM | > 100 µM | 41.1 µM | > 100 µM | > 30.5 µM | > 58.2 µM | 
11 | Nc1ccccc1OCc1cc(=O)c(OCc2ccccc2)co1 | > 100 µM | > 100 µM | > 100 µM | > 100 µM | > 100 µM | 76.5 µM |  | > 100 µM | > 100 µM | 
12 | Cc1c(F)c(N)c2c(=O)cc(-c3ccc(NC(=O)[C@@H](N)CCCCN)c(F)c3)oc2c1F | 29.3 µM and 30.4 µM | 41.3 µM and 27.4 µM | 35.1 µM and 29 µM | 32 µM and 29.3 µM | 28.7 µM and > 57.3 µM | 24 µM and 26.4 µM | 19.5 µM and 18.1 µM | 26.6 µM and 20.5 µM | 24.8 µM and 22.4 µM | 11.2 µM and 2.41 µM
13 | COc1ccc2c(c1)CCCN1Cc3ccccc3CC21 (centres undefined) | > 100 µM | > 100 µM | > 100 µM | > 100 µM | > 100 µM | > 100 µM | > 100 µM | > 100 µM | > 100 µM | 
14 | COC(=O)/C(=C\c1cn(C(C)=O)c2ccccc12)P(=O)(OC)OC | > 100 µM | 26.2 µM | 55.1 µM | 39.8 µM | 33.1 µM | 46.3 µM | 44.9 µM | 64.7 µM |  | 
15 | O=[N+]([O-])/C=C/COCc1cc2c(cc1Br)OCO2 |  | 35.5 µM | 25.4 µM | 25.6 µM | 41.6 µM | 30.6 µM | > 100 µM | 27.1 µM | 33.8 µM | 
16 | CC(C)c1nc2c(Cl)c3ncccc3cc2[nH]c1=O | > 100 µM | > 100 µM | > 100 µM | > 100 µM | > 100 µM | > 100 µM | > 100 µM | > 100 µM | > 100 µM | 
17 | O=Cc1ccc(-c2cccc([N+](=O)[O-])c2)s1 | > 100 µM | > 100 µM | > 100 µM | > 100 µM | > 100 µM | > 100 µM | > 100 µM | > 100 µM | > 100 µM | 
18 | Fc1ccc(Nc2nnc(-c3ccccn3)s2)cc1 | > 100 µM | > 100 µM | > 100 µM | > 100 µM | > 100 µM | > 100 µM | > 100 µM | > 100 µM | > 100 µM | 
19 | O=[N+]([O-])c1ccc(NC(=S)Nc2ccccn2)cc1 | > 73.7 µM | 35.5 µM | > 100 µM | > 100 µM | > 100 µM | > 59 µM | > 100 µM | > 100 µM | > 55.6 µM | 
20 | CC(=O)OCC1OC(n2c(C)c(C(C)=O)c(-c3cccc4ccccc34)c(C#N)c2=S)C(OC(C)=O)C(OC(C)=O)C1OC(C)=O (centres undefined) | > 100 µM | > 100 µM | > 100 µM | > 100 µM | > 100 µM | > 100 µM | > 100 µM | > 100 µM | > 100 µM | 
21 | COC(=O)CCC(C)C1CCC2C3CCC4CC5CCC4(C)C3(O5)C(Br)C(Br)C12C (centres undefined) | > 100 µM | > 100 µM | > 100 µM | > 100 µM | > 100 µM | > 100 µM | > 100 µM | > 100 µM | > 100 µM | 
22 | CN(C)c1ccc(N=Nc2cccc3ncccc23)cc1 | 35.9 µM | > 100 µM | > 100 µM | > 100 µM | > 100 µM | > 100 µM | > 100 µM | > 79.8 µM | > 100 µM | 
